{"source": "paper PMC6509344", "about": "“Novel CMKLR1 Inhibitors for Application in Demyelinating Disease” (Scientific Reports, 2019)", "key": {"[1]": {"target": "T1, Cyp2B6 (Homo sapiens, UniProt P20813)", "T1 construct": "tissue Cyprotex/Evotec AG; host or cells: human liver microsomes", "T1 sequence (P20813 1-491)": "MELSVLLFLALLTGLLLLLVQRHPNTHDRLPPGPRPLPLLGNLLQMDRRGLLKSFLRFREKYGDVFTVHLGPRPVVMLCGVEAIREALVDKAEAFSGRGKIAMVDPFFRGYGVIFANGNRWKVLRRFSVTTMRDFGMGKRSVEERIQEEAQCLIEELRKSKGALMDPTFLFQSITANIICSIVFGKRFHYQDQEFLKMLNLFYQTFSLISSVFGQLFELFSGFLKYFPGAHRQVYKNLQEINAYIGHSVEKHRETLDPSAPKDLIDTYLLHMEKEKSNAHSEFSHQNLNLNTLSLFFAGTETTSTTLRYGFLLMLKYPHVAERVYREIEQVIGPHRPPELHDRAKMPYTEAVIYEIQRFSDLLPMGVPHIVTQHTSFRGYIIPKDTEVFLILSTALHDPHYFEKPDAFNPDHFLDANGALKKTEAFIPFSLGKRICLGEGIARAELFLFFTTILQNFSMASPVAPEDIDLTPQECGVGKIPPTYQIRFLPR", "assay": "Cyp enzyme inhibition in human liver microsomes", "assay_type": "in vitro ADME", "details": "30 min pre-incubation"}, "[2]": {"system": "Salmonella typhimurium (TA100)", "assay": "Ames test for genotoxicity (AMES-MOD ISO)", "details": "concentrations up to at least 10 uM", "quoted_text": "Ames test was completed using the AMES-MOD ISO 96 well format assay, Version 1.1 (Environmental Bio-Detection Products Inc.) according to manufacturer’s instructions. In brief, Salmonella typhimurium (TA100) bacterial strain was exposed to the indicated doses of sodium azide (positive control) or α-NETA solubilized in DMSO (1% DMSO/well, 48 wells/dose completed in triplicate). After 2 h incubation the cells were diluted and cultured in media lacking histidine but containing pH indicator to identify revertant cell growth. After 3 days of incubation at 37 °C, the number of wells containing revertant cells was counted per dose."}, "[3]": {"system": "(hu)CMKLR1 L1.2 cells", "assay": "Chemotaxis assay toward huChemerin", "assay_type": "cell-based, human", "details": "Homo sapiens; (hu)CMKLR1 L1.2 cells migrating toward huChemerin, 2 h; read-out: Chemotaxis IC50 mean ± SEM (n)", "protocol": "(hu)CMKLR1 transfectants (generated in L1.2 pre-B cell lymphoma cells) were grown in RPMI 1640 (Corning) supplemented with L-glutamine, penicillin-streptomycin, and 10% BCS and G418-sulfate (KSE Scientific). DiscoverX PathHunter® CHO-K1 CMKLR1 β-Arrestin Cells were grown in RPMI lacking phenol red (Gibco, Life Technologies), supplemented with L-glutamine, penicillin-streptomycin, sodium pyruvate, non-essential amino acid, BCS, hygromycin, and G418-sulfate.\n(hu)CMKLR1 L1.2 cells at 1 × 10^6 cell/ml were treated with 5 mM sodium butyrate (Sigma) overnight to induce hCMKLR1 expression. The next day, cells were washed in migration media (RPMI + 0.5%BSA) and resuspended at 1.5–3 × 10^6 cell/ml. Cells were pre-incubated at RT for 10 min with various concentrations of α-NETA or test compounds (α-NETA and test compounds were reconstituted in DMSO; final DMSO concentration in each well was 0.1%). 100 ul of cells were added to the upper chamber of a 24-well transwell plate (5 um pore size, Costar). Cells were allowed to migrate toward huChemerin ([…] in migration media, bottom chamber) for 2 h, 37 °C, 5% CO2. The number of migrated cells was quantified by flow cytometry (BD LSR2), and live cells were distinguished based on FSC × SSC properties. The background for this assay was typically low with 0 cells migrating to the buffer alone. For each independent trial, data was normalized to the maximum migration per compound tested and an IC50 value was generated using GraphPad Prism software. The average IC50 value for n independent trials (as specified in the table) is reported."}, "[4]": {"assay": "Acute single dose toxicity (LD50)", "details": "C57BL/6, mouse, in vivo; p.o. (oral gavage) in 10% captisol, WT C57BL6 mice, 14 days monitoring", "quoted_text": "C57/BL6 mice received one treatment of α-NETA (formulated in 10% captisol, Cydex Pharmaceuticals) at the following doses: 3000, 1000, 300, 100, 30, 0 mg/kg by oral gavage (200 ul/dose, 3 mice/group). Mouse survival was monitored and body weight was measured daily for 14 days. On day 14 the mice were euthanized and the wet weight for the following tissues: kidney, brain, spleen, liver, heart, and lung, was recorded."}, "[5]": {"assay": "Repeat dosing toxicity, 14 days", "details": "C57BL/6, mouse, in vivo, po; repeated dosing p.o. for up to 14 days; read-out: no-observable-adverse-effect-level (NOAEL)", "quoted_text": "Mouse survival was monitored and body weight was measured daily for the length of the study. On day 14 the mice were euthanized and the wet weight for the following tissues: kidney, brain, spleen, liver, heart, and lung, was recorded."}, "[6]": {"target": "T2, CYP3A4 (Homo sapiens, UniProt P08684)", "T2 construct": "tissue Cyprotex/Evotec AG; host or cells: human liver microsomes", "T2 sequence (P08684 whole entry)": "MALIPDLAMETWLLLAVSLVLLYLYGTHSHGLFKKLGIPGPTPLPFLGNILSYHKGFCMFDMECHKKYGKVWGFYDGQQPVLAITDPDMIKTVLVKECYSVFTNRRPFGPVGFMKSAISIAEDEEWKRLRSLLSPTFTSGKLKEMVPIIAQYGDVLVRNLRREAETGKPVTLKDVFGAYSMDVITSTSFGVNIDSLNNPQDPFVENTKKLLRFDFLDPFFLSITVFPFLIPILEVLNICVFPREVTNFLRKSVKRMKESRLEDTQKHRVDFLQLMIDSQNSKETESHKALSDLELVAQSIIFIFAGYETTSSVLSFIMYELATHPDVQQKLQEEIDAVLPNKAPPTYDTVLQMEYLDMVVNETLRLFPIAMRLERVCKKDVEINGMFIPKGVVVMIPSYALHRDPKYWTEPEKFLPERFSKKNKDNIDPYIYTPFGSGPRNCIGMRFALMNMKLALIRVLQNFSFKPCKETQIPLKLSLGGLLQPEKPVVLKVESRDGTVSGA", "assay": "Cyp enzyme inhibition in human liver microsomes", "assay_type": "in vitro ADME"}, "[7]": {"system": "Cyp2D6", "set-up": "method as in PubChem BioAssay ID 1461", "details": "ref PubChem BioAssay ID 1461; cited from earlier work"}, "[8]": {"target": "T3, Cyp2C8 (Homo sapiens, UniProt P10632)", "T3 construct": "tissue Cyprotex/Evotec AG; host or cells: human liver microsomes", "T3 sequence (P10632 1-490)": "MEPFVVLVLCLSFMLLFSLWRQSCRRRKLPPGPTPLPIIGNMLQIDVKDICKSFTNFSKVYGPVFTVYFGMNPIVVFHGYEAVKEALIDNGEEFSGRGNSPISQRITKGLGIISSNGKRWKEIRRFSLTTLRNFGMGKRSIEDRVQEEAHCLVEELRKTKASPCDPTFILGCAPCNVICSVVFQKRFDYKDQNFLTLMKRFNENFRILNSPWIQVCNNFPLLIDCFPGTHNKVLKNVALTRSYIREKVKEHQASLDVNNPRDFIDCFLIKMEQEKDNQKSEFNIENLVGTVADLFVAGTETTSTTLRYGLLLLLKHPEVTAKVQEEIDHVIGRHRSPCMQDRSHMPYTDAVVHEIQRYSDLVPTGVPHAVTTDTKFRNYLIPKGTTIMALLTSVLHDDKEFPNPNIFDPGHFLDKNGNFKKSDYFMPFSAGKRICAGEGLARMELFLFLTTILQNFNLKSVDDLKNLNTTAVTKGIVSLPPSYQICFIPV", "assay": "Cyp enzyme inhibition in human liver microsomes", "assay_type": "in vitro ADME", "details": "30 min pre-incubation"}, "[9]": {"system": "Cyp3A4", "set-up": "method as in PMID 25437209", "details": "substrate luciferin-6′ phenylpiperazinylyl; PubChem; cited from earlier work"}}}
{"smiles": "C[N+](C)(C)CCC(=O)c1cccc2ccccc12.[I-]", "note": "[α-NETA, 2-(α-naphthoyl) ethyltrimethylammonium iodide]", "values": [{"measurement": "IC50", "setting": "[1]", "value": 0.12, "unit": "µM"}, {"measurement": "mutagenesis in Ames test (histidine revertants)", "setting": "[2]", "value": "did not induce mutagenesis"}, {"measurement": "IC50", "setting": "[3]", "value": "37 ± 8.9", "unit": "µM"}, {"measurement": "LD50 at 14 days", "setting": "[4]", "value": 873, "unit": "mg/kg"}, {"measurement": "NOAEL at 14 days", "setting": "[5]", "value": "≥ 300", "unit": "mg/kg"}, {"measurement": "IC50", "setting": "[6]; human, liver microsomes, probe midazolam, substrate Midazolam", "value": 7.4, "unit": "µM"}, {"measurement": "IC50", "setting": "[6]; substrate Midazolam", "value": 7.5, "unit": "µM"}, {"measurement": "IC50", "setting": "[6]; substrate testosterone", "value": 6.9, "unit": "µM"}, {"measurement": "IC50", "setting": "[7]", "value": "> 10", "unit": "µM"}, {"measurement": "IC50", "setting": "[8]", "value": 1.5, "unit": "µM"}, {"measurement": "IC50", "setting": "[9]", "value": 0.2, "unit": "µM"}]}
